In patent US20100056391A1, “INTEGRATED SCREENING ASSAYS AND METHODS OF USE” (Trustees of Princeton University, priority 2006, published 2010):

Test system: Dictyostelium cells
Experiment: Development of Dictyostelium cells in the presence of AFC (time-lapse imaging, FIG. 7)
Type: cell-based
From the text: Accordingly, some embodiments of the present invention are directed to assays testing the effects of AFC on Dictyostelium cells.

CC(=O)N[C@@H](CSC/C=C(\C)CC/C=C(\C)CCC=C(C)C)C(=O)O [AFC, N-acetyl-farnsyl cysteine]
ability of the cells to form fruiting bodies (Dictyostelium cells treated with AFC): inhibited | mechanism by which individual cells aggregate into multicellular clusters (head-to-tail streaming while migrating) (compared with untreated cells, which line up head-to-tail and form streams, FIG. 7, 6.5, 8.5 and 9.25 hours): migrate, but do not line up head-to-tail
